Patent US20220386582A1, “METHOD AND DEVICE TO TRAP ACARIDS” (DOMOBIOS, priority 2015, published 2022)

Columns and labels:
Type in all cases: in vivo
Dermatophagoides farinae = assay: Toxicity, direct contact
Experimental: (§1) FIGS. 11A-11D are sets of graphs showing the percentage of dead mites after direct contact with different doses of lavandulol (at a dilution of 10^−6, 0.184 of pure solution or 0.5 μL of pure solution) or water (Ctrl) for different time of exposure. Four species of mites were tested: Dermatophagoides pteronyssinus (FIG. 11A), Dermatophagoides farinae (FIG. 11B), Tyrophagus putrescentiae (FIG. 11C) and Acarus siro (FIG. 11D).
(§2) The species studied were two species of dust common in mattresses in Eurasia (Dermatophagoides pteronyssinus and Dermatophagoides farinae), and two species of stored food mites common in Eurasia (Tyrophagus putrescentiae and Acarus siro). These four species were reared under defined conditions (20° C. and 75% relative humidity). The house dust mites were fed with human flakes (skin and whiskers obtained by cleaning electric shavers) and stored food mites were fed with fish food. The experiments were performed at 20° C. and 40% relative humidity.
(§3) For this experiment, for each of the four species, a group of mites (10<n<25) was placed in a Petri dish in direct contact with the substance to test. To directly contact mites with the substance, a piece of paper filter (5×1 cm) impregnated with lavandulol at various concentration (10 μL of a 10^−6 dilution, 0.18 μL of pure solution and 0.5 μL of pure solution, corresponding respectively to 8.8 ng, 0.15 mg or 0.417 mg of lavandulol), or with a neutral solution, was placed in the Petri dish. The dish was then closed with Parafilm●.
(§4) After a determined time (15 min, 1 hour or 24 hours), the number of dead mites were counted as previously described.

Acarus siro = assay: Toxicity, direct contact
Experimental: as §1, §2, §3, §4

[1] = tested on: Dermatophagoides pteronyssinus; assay: Toxicity, direct contact
Experimental: as §1, §2, §3, §4

Tyrophagus putrescentiae [2] = assay: Toxicity, direct contact
Experimental: as §1, §2, §3, §4

Tyrophagus putrescentiae [3] = assay: Binary choice test in Petri dish, felt with lavandulol composition versus felt with water
Experimental: A group of mites (20<n<40) was placed in the center of a Petri dish (diameter 5.5 cm) around which two felt pieces (density of 70 mg/cm^2, thickness of 2 mm) were placed equidistant. The first felt piece was impregnated with water and the other felt piece was impregnated with the lavandulol composition at different dilutions. The diluted lavandulol solutions were prepared from a 90-95% pure lavandulol stock solution (Phytolab, catalog No. 80887). Mites moved spontaneously towards one of the two felt pieces. The number of mites migrating to one side or to the other side was counted and this distribution was compared to a situation where mites were placed in a Petri dish containing two felt pieces impregnated with water. Observations, counting, and identification of mites' species were performed under binocular microscope (magnification 10×). The set-up is illuminated with a cold lamp (KL 1500 LCD, Schott ●), the lighting is symmetric and the light intensity was 50Klux. The experimental conditions were controlled in the room (T° C.: 19-22° C. and RH 40%).

mites = assay: Short (5 minutes) exposure without drying time on consecutive days (FIG. 9); settings: lavandulol diluted at 10^−6, 5 minutes exposure, no drying time; first day of treatment
Experimental: FIG. 9 is a graph representing the attracting efficiency of a 5 minutes time exposure of a composition comprising lavandulol diluted at 10^−6. The graph represents the percentage of mites trapped by a fabric sprayed with compositions, as a function of the days of exposure to the attracting composition. Similar experiments were performed to determine attractiveness of mites when an attracting solution comprising one or more attractive agents is exposed during a short time without drying time.

[4] = 10^−6 dilution (10 μL), 15 min, 1 hour or 24 hours
[5] = pure solutions (0.18 μL and 0.5 μL), after 1 hour
[6] = pure solutions (0.18 μL and 0.5 μL), after 24 hours

C=C(C)C(CO)CC=C(C)C (stereo not drawn) [Lavandulol, 5-Methyl-2-prop-1-en-2-ylhex-4-en-1-ol]
death of mites by contact (Dermatophagoides farinae; [4]): doesn't cause death of mites
death of mites by contact (Dermatophagoides farinae; [5]): lead to mites' death
death of mites by contact (Dermatophagoides farinae; [6]): all mites being died
death of mites by contact (Acarus siro; [4]): doesn't cause death of mites
mites died by contact (Acarus siro; [5]): 97%
death of mites by contact [1, 4]: doesn't cause death of mites
death of mites by contact [1, 5]: lead to mites' death
death of mites by contact [1, 6]: all mites being died
death of mites by contact (Tyrophagus putrescentiae [2]; [4]): doesn't cause death of mites
death of mites by contact (Tyrophagus putrescentiae [2]; [5]): lead to mites' death
death of mites by contact (Tyrophagus putrescentiae [2]; [6]): all mites being died
Number of mites on the felt piece impregnated with the lavandulol composition (Tyrophagus putrescentiae [3]; Dilution 10^−3): 34%
Number of mites on the felt piece impregnated with the lavandulol composition (Tyrophagus putrescentiae [3]; Dilution 10^−6): 44%
Number of mites on the felt piece impregnated with the lavandulol composition (Tyrophagus putrescentiae [3]; Dilution 10^−7): 48%
Number of mites on the felt piece impregnated with the lavandulol composition (Tyrophagus putrescentiae [3]; Dilution 10^−9): 38%
Number of mites on the felt piece impregnated with the lavandulol composition (Tyrophagus putrescentiae [3]; Dilution 10^−12): 47%
Number of mites on the felt piece impregnated with the lavandulol composition (Tyrophagus putrescentiae [3]; Dilution 10^−13): 49%
Number of mites on the felt piece impregnated with the lavandulol composition (Tyrophagus putrescentiae [3]; Dilution 10^−14): 69%
Number of mites on the felt piece impregnated with the lavandulol composition (Tyrophagus putrescentiae [3]; Dilution 10^−15): 63%
Number of mites on the felt piece impregnated with the lavandulol composition (Tyrophagus putrescentiae [3]; Dilution 10^−16): 60%
Number of mites on the felt piece impregnated with the lavandulol composition (Tyrophagus putrescentiae [3]; Dilution Undiluted): 2%
attraction of mites (in words) (Tyrophagus putrescentiae [3]; at least at a dilution of 10^−3, even more at least at 10^−6): efficiently attracts mites
attraction of mites (in words) (Tyrophagus putrescentiae [3]; undiluted solution): fails to attract mites
percentage of mites attracted in the sheet (mites): very high
